This passage reports Ki results from BindingDB's records for doi:10.1021/bi9016928 (Uppsala University, 2009).

pKi: −log10 of the molar value. Starred links: 1 amine or outer side, 2 acyl side, 3 side chain; linkers in the order of their positions; H or OH if unused. Non-standard residues stand in square brackets, D forms with d. Residues, ends and D or L forms follow the SMILES beside them. ξ: configuration not given here. Dip = N[C@H](C(=O)O)C(c1ccccc1)c1ccccc1; 2Nal = N[C@@H](Cc1ccc2ccccc2c1)C(=O)O; Cha = N[C@@H](CC1CCCCC1)C(=O)O; Ile(3ξ) = CCC(C)[C@H](N)C(=O)O; Chg = N[C@H](C(=O)O)C1CCCCC1; Suc = O=C(CCC(=O)[*:2])[*:1]

In this experiment the target is T1, Genome polyprotein (Hepacivirus hominis, UniProt Q04045).
T1 sequence (Q04045 whole entry): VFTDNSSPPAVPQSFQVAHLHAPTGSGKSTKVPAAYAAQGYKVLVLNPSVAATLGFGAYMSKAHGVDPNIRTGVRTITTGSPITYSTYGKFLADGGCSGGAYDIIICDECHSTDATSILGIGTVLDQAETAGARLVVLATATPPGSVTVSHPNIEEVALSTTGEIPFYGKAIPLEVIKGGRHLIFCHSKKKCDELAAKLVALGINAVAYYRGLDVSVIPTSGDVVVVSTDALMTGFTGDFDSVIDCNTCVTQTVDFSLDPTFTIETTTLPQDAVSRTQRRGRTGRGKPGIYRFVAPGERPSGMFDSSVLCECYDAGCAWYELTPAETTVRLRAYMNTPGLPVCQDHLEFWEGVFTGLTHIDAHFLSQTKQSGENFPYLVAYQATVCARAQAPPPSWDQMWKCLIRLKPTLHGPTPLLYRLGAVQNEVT
Description: Competitive Inhibition Assay. The protocol: Analysis of the inhibition activation of flNS3 by the inhibitors was performed with the standard assay, allowing the inhibitor to preincubate with NS3 and NS4 for 15 min. prior to addition of substrate.

What is called pKi is the negative decadic logarithm of the Ki, by convention in mol/L. Low readings indicate a large Ki, high ones a small Ki. Turning to `COc1ccc2c(O[C@@H]3C[C@H]4C(=O)N[C@]5(C(=O)O)C[C@H]5/C=C\CCCCC[C@H](NC(=O)OC5CCCC5)C(=O)N4C3)cc(-c3csc(NC(C)C)n3)nc2c1`, the pKi was 9.92.

Compound `CCC(C)[C@H](NC(=O)[C@@H](NC(=O)CCC(=O)O)C1CCCCC1)C(=O)N[C@@H](CC1CCCCC1)C(=O)N[C@@H](CS)C(=O)O` (stereo partly specified) [NS3 Protease Inhibitor, 1] (Suc-[Chg][Ile(3ξ)][Cha]C-OH) had a pKi of 6.48.

Compound `O=C(O)CCC(=O)N[C@H](C(=O)N[C@@H](CCC(=O)O)C(=O)N[C@@H](Cc1ccc2ccccc2c1)C(=O)N[C@@H](CS)C(=O)O)C1CCCCC1` [NS3 Protease Inhibitor, 2] (Suc-[Chg]E[2Nal]C-OH) gave a pKi of 6.74.

In turn, `O=C(O)CCC(=O)N[C@H](C(=O)N[C@@H](CCC(=O)O)C(=O)N[C@@H](CCC(=O)O)C(=O)N[C@@H](CS)C(=O)O)C(c1ccccc1)c1ccccc1` [NS3 Protease Inhibitor, 3] (Suc-[Dip]EEC-OH) had a negative logarithm of the Ki (pKi) of 6.28.

`O=C(O)CCC(=O)N[C@H](C(=O)N[C@@H](CCC(=O)O)C(=O)N[C@@H](CC1CCCCC1)C(=O)N[C@@H](CS)C(=O)O)C1CCCCC1` [NS3 Protease Inhibitor, 4] (Suc-[Chg]E[Cha]C-OH): the pKi was 6.82.

The compound `CC(=O)N[C@H](C(=O)N[C@@H](CCC(=O)O)C(=O)N[C@@H](Cc1ccc2ccccc2c1)C(=O)N[C@@H](CS)C(=O)O)C1CCCCC1` [NS3 Protease Inhibitor, 5] (Ac-[Chg]E[2Nal]C-OH) showed a negative logarithm of the Ki (pKi) of 6.30.

The compound `COc1ccc2c(O[C@@H]3C[C@@H](C(=O)NC4(C(=O)O)CC4)N(C(=O)[C@@H](NC(=O)OC(C)(C)C)C(C)C)C3)cc(-c3ccccc3)nc2c1` [NS3 Protease Inhibitor, 6] showed a pKi of 5.96.

Consider `C=CC1C[C@]1(NC(=O)[C@@H](NC(=O)C(NC(=O)OC(C)(C)C)C(C)C)c1ccc(Oc2cc(-c3ccccc3)nc3cc(OC)ccc23)cc1)C(=O)NS(=O)(=O)c1ccccc1` (stereo partly specified) [NS3 Protease Inhibitor, 7], for which the pKi is 6.54.

In turn, `CCC[C@H](NC(=O)[C@@H]1C[C@@H](Oc2cc(-c3ccccc3)nc3cc(OC)ccc23)CN1C(=O)[C@@H](NC(=O)OC(C)(C)C)C(C)C)C(=O)NS(=O)(=O)c1ccccc1` [NS3 Protease Inhibitor, 8] gave a negative logarithm of the Ki (pKi) of 6.77.

`C=CC1C[C@]1(NC(=O)[C@@H]1C[C@@H](Oc2cc(-c3ccccc3)nc3cc(OC)ccc23)CN1C(=O)[C@@H](NC(=O)OC(C)(C)C)C(C)C)C(=O)O` (stereo partly specified) [NS3 Protease Inhibitor, 9] gave a pKi of 7.82.

The compound `C=CC1C[C@]1(NC(=O)[C@@H]1C[C@@H](Oc2cc(-c3ccccc3)nc3cc(OC)ccc23)CN1C(=O)[C@@H](NC(=O)OC(C)(C)C)C(C)C)C(=O)NS(=O)(=O)c1ccccc1` (stereo partly specified) [NS3 Protease Inhibitor, 10] showed a pKi of 9.66.
